Measurements published in patent US7579371B2, “Methods of using [3.2.0] heterocyclic compounds and analogs thereof” (Nereus Pharmaceuticals, Inc., priority 2004, dated 2009).
Values joined by “and” are separate entries in the source; they are usually repeats but may differ in a detail not shown here. Equal entries are not always repeated.

What was measured:
[1] = system: CCD-27sk; assay: Cytotoxic activity, 48 h, normal human fibroblasts; assay type: cell-based
[2] = system: HL-60
[3] = system: PARP; assay: PARP cleavage in Jurkat cells (western blot); assay type: cell-based, human; settings: 100 nM Salinosporamide A or 350 nM Staurosporine
[4] = system: RAW264.7 cells; assay: cells; settings: Mus musculus
[5] = system: PC-3 cells; assay: PARP and Pro-Caspase 3 cleavage in PC-3 cells (western blot); assay type: cell-based, human; settings: 100 nM; 0, 8 or 24 hours
Procedure: Total protein lysates were made and 20 μg of the lysates were then resolved under reducing/denaturing conditions and blotted onto nitrocellulose. The blots were then probed with anti-PARP or anti-caspase 3 antibodies followed by stripping and reprobing with an anti-actin antibody.

[6] = system: HT-29; assay: Cell growth inhibition assay (resazurin, 48 h); assay type: cell-based, human; settings: HT-29, 48 h
Procedure: (§1) RPMI 8226 (CCL-155), HT-29 (HTB-38), and B16-F10 (CRL-6475) cells were purchased from ATCC. RPMI 8226 cells were maintained in RPMI 1640 media supplemented with 10% (v/v) FBS, 2 mM L-glutamine, 1 mM sodium pyruvate and Penicillin/Streptomycin at 100 IU/ml and 100 μg/ml, respectively. HT-29 cells were maintained in McCoys 5A supplemented with 10% (v/v) FBS, 2 mM L-glutamine, 1 mM sodium pyruvate, 1% (v/v) non-essential amino acids, 10 mM HEPES and Penicillin/Streptomycin at 100 IU/ml and 100 μg/ml, respectively. B16-F10 cells were maintained in DMEM supplemented with 10% (v/v) FBS, 2 mM L-glutamine, 10 mM HEPES and Penicillin/Streptomycin at 100 IU/ml and 100 μg/ml, respectively.
(§2) RPMI 8226 cells were seeded at 2×10^4 cells/well in 90 μl RPMI media containing 10% (v/v) FBS or 1% (v/v) FBS into 96 well black-walled, clear-bottom tissue culture plates. […] Formulae II-16, II-17 and Formula II-18 were serially diluted in media containing 1% or 10% FBS and added in triplicate to the test wells. […] The final concentration of Formula II-18 ranged from 2 μM to 630 pM.

[7] = system: MES-SA; assay: Cell growth inhibition assay (resazurin, 48 h); assay type: cell-based, human
[8] = molecular target: T1, human erythrocyte proteasomes, Caspase-like activity (Homo sapiens, UniProt P28072); assay: Caspase-like activity of human erythrocyte proteasomes; assay type: biochemical
T1 construct: from tissue; host or cells: human erythrocytes

[9] = Maximum tolerated dose determination in female BALB/c mice; assay type: in vivo, mouse
Source text: In vivo studies were designed to determine the MTD of Salinosporamide A when administered intravenously to female BALB/c mice.
Animals were observed daily for clinical signs and were weighed individually twice weekly until the end of the experiment (maximum of 14 days after the last day of dosing).

[10] = molecular target: T2, 20S proteasome chymotrypsin-like activity in PC-3 cells (Homo sapiens, UniProt P28074); assay: Chymotrypsin-like activity of 20S proteasomes in treated PC-3 cells; assay type: cell-based; settings: 5 nM, 1 hr
T2 construct: PC-3 (ATCC, CRL-1435), the human prostate cancer cell line; host or cells: PC-3
T2 sequence (P28074 60-263): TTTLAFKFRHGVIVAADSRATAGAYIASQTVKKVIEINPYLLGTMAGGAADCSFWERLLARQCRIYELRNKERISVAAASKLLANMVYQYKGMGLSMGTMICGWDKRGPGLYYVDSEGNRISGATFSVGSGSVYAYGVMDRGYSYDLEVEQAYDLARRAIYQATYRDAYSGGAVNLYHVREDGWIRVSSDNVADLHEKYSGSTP
Procedure: PC-3 (ATCC, CRL-1435), the human prostate cancer cell line, was cultured in F12K medium supplemented with 2 mM L-glutamine, 100 units/ml penicillin, 100 μg/ml streptomycin and 10% heat inactivated fetal bovine serum at 37° C., 5% CO2 and 95% humidified air. […] DMSO was used as the vehicle control at a final concentration of 0.1%. Following 1 hr incubation of PC-3 cells with the compounds, the cells were washed 3× with ice-cold 1× Dulbecco's Phosphate-Buffered Saline (DPBS, Mediatech, Herndon, Va.). […] Cell debris was pelleted by centrifugation at 14,000 rpm for 10 min, 4° C. and supernatants (=cell lysates) were transferred to a new tube. Protein concentration was determined by the BCA protein assay kit (Pierce Biotechnology, Rockford, Ill.). […] The released coumarin (AMC) was measured fluorometrically by using λex=390 nm and λem=460 nm. The assay was performed in a microtiter plate (Corning 3904) and followed kinetically with measurements every five minutes for 2 hr. The total amount of protein used for each assay was 20 μg. The final concentration of Suc-LLVY-AMC and DMSO was 20 μM and 0.2%, respectively. Results are presented as the percent inhibition of the 20S proteasome chymotrypsin-like activity relative to the DMSO control.

[11] = system: RPMI 8226; assay: Cell growth inhibition assay (resazurin, 48 h); settings: for % cytotoxicity: RPMI 8226
Procedure: as §1, §2

[12] = system: multiple myeloma cells; assay: Transwell migration assay, VEGF-induced migration; assay type: cell-based
Procedure: The compounds disclosed herein inhibit angiogenesis. […] The other compounds disclosed herein are tested in a transwell mighration assay and inhibit migration.

[13] = system: B16-F10; assay: Cell growth inhibition assay (resazurin, 48 h); assay type: cell-based, mouse; settings: B16-F10, 48 h
Procedure: as §1, §2

[14] = molecular target: CYP2C19 (Homo sapiens, UniProt P33261); assay: Preliminary P450 inhibition screen; settings: tested at 10 μM
Source text: (§3) These studies consisted of solubility assessment, LogD^7.4 determination and a preliminary screen to detect cytochrome P450 enzyme inhibition.

[15] = molecular target: CYP3A4 (Homo sapiens, UniProt P08684); assay: Preliminary P450 inhibition screen; settings: tested at 10 μM
Source text: as §3

[16] = molecular target: CYP2D6 (Homo sapiens, UniProt P10635); assay: Preliminary P450 inhibition screen; settings: tested at 10 μM
Source text: as §3

[17] = molecular target: CYP1A2 (Homo sapiens, UniProt P05177); assay: Preliminary P450 inhibition screen; settings: tested at 10 μM
Source text: as §3

[18] = molecular target: CYP2C9 (Homo sapiens, UniProt P11712); assay: Preliminary P450 inhibition screen; settings: tested at 10 μM
Source text: as §3

CYP2C19, sequence (P33261 whole entry): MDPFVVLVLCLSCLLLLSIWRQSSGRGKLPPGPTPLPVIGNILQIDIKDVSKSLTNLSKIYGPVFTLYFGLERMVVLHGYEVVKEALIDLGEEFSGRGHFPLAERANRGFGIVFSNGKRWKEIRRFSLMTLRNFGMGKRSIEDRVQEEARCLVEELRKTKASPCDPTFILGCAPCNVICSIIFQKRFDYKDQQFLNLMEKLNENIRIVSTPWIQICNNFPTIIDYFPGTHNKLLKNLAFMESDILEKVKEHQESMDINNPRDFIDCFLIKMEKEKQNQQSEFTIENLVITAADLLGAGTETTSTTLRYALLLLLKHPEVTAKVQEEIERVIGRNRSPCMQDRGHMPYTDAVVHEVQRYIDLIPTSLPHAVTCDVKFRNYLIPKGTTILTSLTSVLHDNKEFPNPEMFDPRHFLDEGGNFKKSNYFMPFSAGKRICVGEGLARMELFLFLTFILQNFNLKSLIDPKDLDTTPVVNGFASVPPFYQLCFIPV
CYP1A2, sequence (P05177 whole entry): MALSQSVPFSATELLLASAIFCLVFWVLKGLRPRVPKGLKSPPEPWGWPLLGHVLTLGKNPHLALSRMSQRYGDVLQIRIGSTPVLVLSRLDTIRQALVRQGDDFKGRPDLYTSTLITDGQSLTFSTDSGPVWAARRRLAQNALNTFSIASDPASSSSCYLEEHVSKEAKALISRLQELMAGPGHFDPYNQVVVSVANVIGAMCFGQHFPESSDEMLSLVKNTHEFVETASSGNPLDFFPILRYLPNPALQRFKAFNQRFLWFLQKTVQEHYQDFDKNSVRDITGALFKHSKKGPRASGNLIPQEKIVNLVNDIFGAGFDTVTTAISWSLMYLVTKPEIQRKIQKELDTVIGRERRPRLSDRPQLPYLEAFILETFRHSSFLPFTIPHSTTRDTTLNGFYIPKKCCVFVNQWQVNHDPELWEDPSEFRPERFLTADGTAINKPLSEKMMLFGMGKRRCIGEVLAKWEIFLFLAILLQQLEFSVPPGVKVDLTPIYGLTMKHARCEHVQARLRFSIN
CYP3A4, sequence (P08684 whole entry): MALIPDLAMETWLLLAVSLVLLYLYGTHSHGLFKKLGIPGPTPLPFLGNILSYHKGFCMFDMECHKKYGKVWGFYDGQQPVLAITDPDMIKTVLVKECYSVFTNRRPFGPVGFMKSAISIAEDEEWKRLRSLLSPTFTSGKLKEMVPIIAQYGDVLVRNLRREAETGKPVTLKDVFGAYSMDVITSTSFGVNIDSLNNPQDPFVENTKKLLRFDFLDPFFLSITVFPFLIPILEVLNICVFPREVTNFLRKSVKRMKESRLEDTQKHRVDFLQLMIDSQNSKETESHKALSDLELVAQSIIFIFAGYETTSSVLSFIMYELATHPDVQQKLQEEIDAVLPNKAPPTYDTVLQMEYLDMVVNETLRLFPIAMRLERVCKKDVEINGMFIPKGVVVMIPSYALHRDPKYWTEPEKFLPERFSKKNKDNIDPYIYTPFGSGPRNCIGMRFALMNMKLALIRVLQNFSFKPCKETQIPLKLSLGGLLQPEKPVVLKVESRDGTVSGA
CYP2C9, sequence (P11712 whole entry): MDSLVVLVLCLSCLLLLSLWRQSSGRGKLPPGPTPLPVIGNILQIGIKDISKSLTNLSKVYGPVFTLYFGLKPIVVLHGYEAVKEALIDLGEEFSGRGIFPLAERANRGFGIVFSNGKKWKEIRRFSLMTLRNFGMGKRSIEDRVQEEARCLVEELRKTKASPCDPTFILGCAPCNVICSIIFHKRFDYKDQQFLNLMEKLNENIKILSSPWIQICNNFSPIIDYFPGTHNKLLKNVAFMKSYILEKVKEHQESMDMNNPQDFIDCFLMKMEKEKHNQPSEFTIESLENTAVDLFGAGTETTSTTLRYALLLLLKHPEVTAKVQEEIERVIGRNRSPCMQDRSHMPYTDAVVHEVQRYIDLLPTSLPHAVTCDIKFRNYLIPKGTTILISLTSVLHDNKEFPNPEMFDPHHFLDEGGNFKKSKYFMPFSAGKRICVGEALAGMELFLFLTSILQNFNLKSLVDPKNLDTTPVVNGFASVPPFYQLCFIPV
CYP2D6, sequence (P10635 whole entry): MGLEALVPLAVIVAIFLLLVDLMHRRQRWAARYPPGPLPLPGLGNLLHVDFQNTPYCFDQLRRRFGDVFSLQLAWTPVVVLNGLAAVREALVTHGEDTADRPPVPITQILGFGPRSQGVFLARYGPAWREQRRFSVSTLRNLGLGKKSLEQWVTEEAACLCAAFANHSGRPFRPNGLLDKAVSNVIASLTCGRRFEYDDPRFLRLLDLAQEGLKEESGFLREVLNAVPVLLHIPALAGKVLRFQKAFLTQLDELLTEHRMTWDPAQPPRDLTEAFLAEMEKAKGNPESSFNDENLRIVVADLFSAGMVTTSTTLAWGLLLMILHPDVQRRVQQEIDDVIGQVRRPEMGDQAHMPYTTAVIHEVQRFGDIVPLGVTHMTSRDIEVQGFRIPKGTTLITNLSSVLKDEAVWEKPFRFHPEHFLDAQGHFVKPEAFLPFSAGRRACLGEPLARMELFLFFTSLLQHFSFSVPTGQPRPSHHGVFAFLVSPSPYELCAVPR

C[C@@]12OC(=O)[C@]1([C@@H](O)[C@@H]1C=CCCC1)NC(=O)[C@@H]2CCCl [Formula II-16, Salinosporamide A]
EC50 [1]: 196 nM | % cytotoxicity ([2]; HL-60): 88% and 91% | EC50 ([2]; HL-60, 48 h): 30 nM | cleavage of PARP [3]: cleavage of PARP within the Jurkat cells in a time-dependent fashion | EC50 ([4]; RAW264.7, read-out: EC50, inhibition of LeTx-mediated cytotoxicity): < 4 nM | viability at […] ([4]; RAW264.7, read-out: cell-viability, compound + LeTx): 82% | cleavage of PARP [5]: cleavage of PARP is noticeable at 24 hours | EC50 [6]: 40 ± 26 nM | EC50 ([6]; Homo sapiens): 47 nM | % cytotoxicity [7]: 94 ± 1% | EC50 ([7]; Homo sapiens, 48 h): 20 ± 5 nM | EC50 [8]: ~390 nM | well tolerated dose, daily for five consecutive days ([9]; i.v. qdx5, female BALB/c mice): up to 0.1 mg/kg | tolerated single intravenous dose ([9]; qdx1, female BALB/c mice): up to 0.25 mg/kg | % inhibition of the chymotrypsin-like activity of 20S proteasomes in PC-3 cell lysates [10]: 69% | EC50 ([11]; Homo sapiens, RPMI-8226, 48 h, RPMI 8226, 48 h): 8.6 ± 1.9 nM | % cytotoxicity ([11]; listed as II-16): 94 ± 0% | % cytotoxicity ([11]; listed as Salinosporamide A): 94 ± 1% | VEGF-induced migration of multiple myeloma cells [12]: blocked | EC50 [13]: 47 ± 20 nM | EC50 ([13]; Mus musculus): 33 nM | inhibition of CYP2C19 [14]: 22% | inhibition of CYP3A4 [15]: 6% | inhibition of CYP2D6 [16]: 19% | inhibition of CYP1A2 [17]: 3% | inhibition of CYP2C9 [18]: 6%
